In patent US4740233A, “Substituted 1,2,4-triazolo[1,5-a]-pyrimidine-2-sulfonamides and compositions and methods of controlling undesired vegetation and suppressing the nitrification of ammonium nitrogen in soil” (The Dow Chemical Company, priority 1986, dated 1988):

Experiments:
[1] = test system: annual morning glory; assay: Preemergent control of plant species; assay type: in vivo, Ipomoea spp.; settings: Ipomoea, pre-emergence, 336 h; 0.25 lb/acre; read-out: percent preemergent control
How it was run: (§1)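 Seeds sown in agricultural soil in greenhouse beds, then aqueous-emulsion compositions applied uniformly to the bed surface at listed rates. Beds kept two weeks under greenhouse growth conditions with watering. Control expressed as growth reduction versus water-treated beds of the same species.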

[2] = test system: cotton; assay: Preemergent control of plant species; assay type: in vivo, Gossypium spp.; settings: Gossypium hirsutum, pre-emergence, 336 h; 0.25 lb/acre; read-out: percent preemergent control
How it was run: as §1

[3] = test system: corn; assay: Preemergent control of plant species; assay type: in vivo, Zea mays; settings: Zea mays, pre-emergence, 336 h; 0.25 lb/acre; read-out: percent preemergent control
How it was run: as §1

[4] = test system: wheat; assay: Preemergent control of plant species; assay type: in vivo, Triticum aestivum; settings: Triticum aestivum, pre-emergence, 336 h; 0.25 lb/acre; read-out: percent preemergent control
How it was run: as §1

[5] = test system: corn (First In); assay: Gametocidal activity in corn, postemergent application; assay type: in vivo; settings: sprayed at three leaf stage
Procedure: The compounds of this invention are also plant gametocides depending on the dosage and timing of application and the species of plant to which the compounds are applied. For example, certain of the compounds were sprayed on corn seedlings at the three leaf stage of growth, and the seedlings were returned to the greenhouse for subsequent growth and observation. The corn variety was "First In". The chemicals were dissolved in acetone, and the acetone solution was diluted with water containing Tween 20 wetting agent such that the final spray solution contained 50% acetone and 0.1% Tween 20 in water. […] Tabulated below are data which illustrate the use of the compounds of this invention as plant gametocides in corn.

[6] = test system: rape; assay: Preemergent control of plant species; assay type: in vivo, Brassica napus; settings: Brassica napus, pre-emergence, 336 h; 0.25 lb/acre; read-out: percent preemergent control
How it was run: as §1

[7] = test system: rice; assay: Preemergent control of plant species; assay type: in vivo, Oryza sativa; settings: Oryza sativa, pre-emergence, 336 h; 0.25 lb/acre; read-out: percent preemergent control
How it was run: as §1

[8] = test system: jimsonweed; assay: Preemergent control of plant species; assay type: in vivo, Datura stramonium; settings: Datura stramonium, pre-emergence, 336 h; 0.25 lb/acre; read-out: percent preemergent control
How it was run: as §1

[9] = test system: yellow foxtail; assay: Preemergent control of plant species; assay type: in vivo, Setaria lutescens; settings: Setaria, pre-emergence, 336 h; 0.25 lb/acre; read-out: percent preemergent control
How it was run: as §1

[10] = test system: sorghum; assay: Preemergent control of plant species; assay type: in vivo, Sorghum vulgare; settings: Sorghum, pre-emergence, 336 h; 0.25 lb/acre; read-out: percent preemergent control
How it was run: as §1

[11] = test system: soybean; assay: Preemergent control of plant species; assay type: in vivo, Glycine max.; settings: Glycine max, pre-emergence, 336 h; 0.25 lb/acre; read-out: percent preemergent control
How it was run: as §1

[12] = test system: barnyardgrass; assay: Preemergent control of plant species; assay type: in vivo, Echinochloa crusgalli; settings: Echinochloa crus-galli, pre-emergence, 336 h; 0.25 lb/acre; read-out: percent preemergent control
How it was run: as §1

[13] = test system: sugar beet; assay: Preemergent control of plant species; assay type: in vivo, Beta saccharifera; settings: Beta vulgaris, pre-emergence, 336 h; 0.25 lb/acre; read-out: percent preemergent control
How it was run: as §1

[14] = test system: johnson grass; assay: Preemergent control of plant species; assay type: in vivo, Sorghum halepense; settings: Sorghum halepense, pre-emergence, 336 h; 0.25 lb/acre; read-out: percent preemergent control
How it was run: as §1

[15] = test system: yellow nutsedge; assay: Preemergent control of plant species; assay type: in vivo, Cyperus esculentus; settings: Cyperus, pre-emergence, 336 h; 0.25 lb/acre; read-out: percent preemergent control
How it was run: as §1

[16] = test system: velvetleaf; assay: Preemergent control of plant species; assay type: in vivo, Abutilon theophrasti; settings: Abutilon theophrasti, pre-emergence, 336 h; 0.25 lb/acre; read-out: percent preemergent control
How it was run: as §1

| Structure (SMILES) | pest or weed control at 280.212 g/ha [1] [%] | plant injury at 280.212 g/ha [2] [%] | plant injury at 280.212 g/ha [3] [%] | plant injury at 280.212 g/ha [4] [%] | concentration required to produce 100% control (gametocidal activity) [5] [ppm] | plant injury at 280.212 g/ha [6] [%] | plant injury at 280.212 g/ha [7] [%] | pest or weed control at 280.212 g/ha [8] [%] | pest or weed control at 280.212 g/ha [9] [%] | plant injury at 280.212 g/ha [10] [%] | plant injury at 280.212 g/ha [11] [%] | pest or weed control at 280.212 g/ha [12] [%] | plant injury at 280.212 g/ha [13] [%] | pest or weed control at 280.212 g/ha [14] [%] | pest or weed control at 280.212 g/ha [15] [%] | pest or weed control at 280.212 g/ha [16] [%] |
| --- | --- | --- | --- | --- | --- | --- | --- | --- | --- | --- | --- | --- | --- | --- | --- | --- |
| CC(=O)N(c1c(F)cccc1F)S(=O)(=O)c1nc2nc(C)ccn2n1 [Compound 275] | 90 | 100 | 80 | 100 | 400 | 100 | 90 | 100 | 100 | 100 | 20 | 100 | 100 | 100 | 100 | 100 |
| Cc1ccn2nc(S(=O)(=O)N(C(=O)C(C)C)c3c(F)cccc3F)nc2n1 [Compound 277] | 30 | 50 | 40 | 80 | 200 | 100 | 80 | 100 | 100 | 90 | 20 | 90 | 100 | 100 | 100 | 100 |
| CCCCC(=O)N(c1c(F)cccc1F)S(=O)(=O)c1nc2nc(C)ccn2n1 [Compound 279] | 90 | 90 | 80 | 90 | 50 | 100 | 100 | 100 | 100 | 100 | 20 | 100 | 100 | 100 | 100 | 100 |
